This passage reports Ki results from paper PMC9848269, “Investigation of novel alkyl/benzyl (4-sulphamoylphenyl)carbamimidothioates as carbonic anhydrase inhibitors” (Journal of Enzyme Inhibition and Medicinal Chemistry, 2023).

What all share (design): stopped-flow CO2 hydration assay, phenol red absorbance at 557 nm, Ki via Cheng-Prusoff
One experiment concerns the target T1, hCA I (Homo sapiens, UniProt P00915).
T1 construct: gene CA1; recombinant, obtained in-house; cytosolic
The experiment is described as follows: biochemical. On the procedure:
(§1) An applied photophysics stopped-flow instrument has been used for assaying the CA-catalysed CO2 hydration activity. Phenol red (at a concentration of 0.2 mM) was used as indicator, working at the absorbance maximum of 557 nm, with 20 mM Hepes (pH 7.5) as buffer for α-CAs or 20 mM TRIS (pH 8.4) as buffer for β-CAs, and 20 mM Na2SO4 (for maintaining constant the ionic strength), following the initial rates of the CA-catalysed CO2 hydration reaction for a period of 10 – 100 s. The CO2 concentrations ranged from 1.7 to 17 mM for the determination of the kinetic parameters and inhibition constants. For each inhibitor, at least six traces of the initial 5 – 10% of the reaction have been used for determining the initial velocity. The uncatalysed rates were determined in the same manner and subtracted from the total observed rates. Stock solutions of inhibitor (0.1 mM) were prepared in distilled – deionised water, and dilutions up to 0.01 nM were done thereafter with the assay buffer. Inhibitor and enzyme solutions were preincubated together for 6 h at room temperature prior to assay in order to allow for the formation of the E – I complex. The inhibition constants were obtained by nonlinear least-squares methods using PRISM 3 and the Cheng–Prusoff equation, as reported earlier[12]^,[13]^,[20]^,[21], and represent the mean from at least three different determinations. All CA isoforms were recombinant ones obtained in-house as reported earlier[22]^,[23] and their concentrations in the assay system ranged between 7.6–12.5 nM. Sulphonamides 8a–o incorporating carbamimidothioate moieties have been tested as inhibitors of four human (h) CA isoforms, the cytosolic hCA I, II, VII and XIII, as well as the bacterial β-CAs from Mammaliicoccus (Staphylococcus) sciuri[14] and Salmonella enterica (serovar Typhimurium), StCA1 and StCA2[15]. It should be mentioned that the first bacterial enzyme, MscCA, was originally reported by us as Staphylococcus aureus β-CA, SauCA based on a genomic sequence annotated in the data bases in 2017[14]. […] In 2020, the species was renamed as belonging to a new genus, as Mammaliicoccus sciuri. The hCAs included in the study were the ubiquitous hCA I and II, as well as hCA VII and XIII which are found in fewer tissues compared to hCA I and II, and are involved in several pathologies in the CNS (hCA VII) or reproductive tract (hCA XIII)[17]^,[18].

The target in a further experiment is T2, hCA II (Homo sapiens, UniProt P00918).
T2 construct: gene CA2; recombinant, obtained in-house; cytosolic
The experiment is described as follows: biochemical. On the procedure: as §1

The next experiment deals with T3, hCA VII (Homo sapiens, UniProt P43166).
T3 construct: gene CA7; recombinant, obtained in-house; cytosolic
In words: biochemical. On the procedure:
as §1

The target in a further experiment is T4, hCA XIII (Homo sapiens, UniProt Q8N1Q1).
T4 construct: gene CA13; recombinant, obtained in-house; cytosolic
In words: biochemical. On the procedure: as §1

Another experiment addresses T5, StCA2 (Salmonella enterica, UniProt O30898).
T5 construct: gene mig-5; recombinant, obtained in-house; beta-class CA
T5 sequence (O30898 41-246): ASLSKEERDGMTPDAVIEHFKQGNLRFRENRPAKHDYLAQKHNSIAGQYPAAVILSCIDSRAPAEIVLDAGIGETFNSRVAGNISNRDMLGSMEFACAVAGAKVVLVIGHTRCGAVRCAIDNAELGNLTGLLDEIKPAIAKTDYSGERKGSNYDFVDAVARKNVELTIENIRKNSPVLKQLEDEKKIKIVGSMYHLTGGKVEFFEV
Conditions: inhibitor. On the procedure: An applied photophysics stopped-flow instrument has been used for assaying the CA-catalysed CO2 hydration activity. Phenol red (at a concentration of 0.2 mM) was used as indicator, working at the absorbance maximum of 557 nm, with 20 mM Hepes (pH 7.5) as buffer for α-CAs or 20 mM TRIS (pH 8.4) as buffer for β-CAs, and 20 mM Na2SO4 (for maintaining constant the ionic strength), following the initial rates of the CA-catalysed CO2 hydration reaction for a period of 10 – 100 s. The CO2 concentrations ranged from 1.7 to 17 mM for the determination of the kinetic parameters and inhibition constants. For each inhibitor, at least six traces of the initial 5 – 10% of the reaction have been used for determining the initial velocity. The uncatalysed rates were determined in the same manner and subtracted from the total observed rates. Stock solutions of inhibitor (0.1 mM) were prepared in distilled – deionised water, and dilutions up to 0.01 nM were done thereafter with the assay buffer. Inhibitor and enzyme solutions were preincubated together for 6 h at room temperature prior to assay in order to allow for the formation of the E – I complex. The inhibition constants were obtained by nonlinear least-squares methods using PRISM 3 and the Cheng–Prusoff equation, as reported earlier[12]^,[13]^,[20]^,[21], and represent the mean from at least three different determinations. […]

The structures appear in SMILES notation.

T3 sequence (P43166 whole entry): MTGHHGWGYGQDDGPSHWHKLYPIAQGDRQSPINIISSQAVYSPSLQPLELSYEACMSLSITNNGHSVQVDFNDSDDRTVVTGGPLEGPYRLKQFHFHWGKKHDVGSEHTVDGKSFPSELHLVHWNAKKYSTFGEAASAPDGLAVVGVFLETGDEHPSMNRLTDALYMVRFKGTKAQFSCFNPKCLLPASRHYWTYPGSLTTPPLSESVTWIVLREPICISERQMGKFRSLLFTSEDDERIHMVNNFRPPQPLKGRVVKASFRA
T1 sequence (P00915 2-261): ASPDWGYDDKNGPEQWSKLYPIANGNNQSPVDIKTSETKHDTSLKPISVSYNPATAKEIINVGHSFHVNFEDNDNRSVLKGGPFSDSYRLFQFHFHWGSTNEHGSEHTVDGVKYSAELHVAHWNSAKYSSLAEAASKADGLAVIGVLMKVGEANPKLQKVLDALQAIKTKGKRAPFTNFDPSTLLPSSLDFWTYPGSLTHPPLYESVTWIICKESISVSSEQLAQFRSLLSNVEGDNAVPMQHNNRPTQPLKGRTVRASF
T4 sequence (Q8N1Q1 whole entry): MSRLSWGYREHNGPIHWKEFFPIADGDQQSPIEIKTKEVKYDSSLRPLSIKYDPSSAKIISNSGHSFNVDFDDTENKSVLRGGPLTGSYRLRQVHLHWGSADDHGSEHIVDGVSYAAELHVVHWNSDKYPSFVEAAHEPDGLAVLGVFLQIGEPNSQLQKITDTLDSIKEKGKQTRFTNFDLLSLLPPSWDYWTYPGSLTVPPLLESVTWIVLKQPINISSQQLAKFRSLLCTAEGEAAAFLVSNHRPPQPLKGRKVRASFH

The Ki is the dissociation constant of the complex between target and ligand, obtained from inhibition or displacement. A higher Ki goes with lower affinity. In the case of `CCCCCCSC(=N)Nc1ccc(S(N)(=O)=O)cc1` [8c, Hexyl (4-sulphamoylphenyl)carbamimidothioate], the Ki at hCA I came out at 78.8 nM; at hCA II it was 2.5 nM; at hCA VII, 2.3 nM; on hCA XIII, 92.2 nM; at StCA2, 898 nM.
